Biological target: T1, MAGL (recombinant wild-type) (Homo sapiens, UniProt Q99685)
T1 sequence (Q99685 1-303): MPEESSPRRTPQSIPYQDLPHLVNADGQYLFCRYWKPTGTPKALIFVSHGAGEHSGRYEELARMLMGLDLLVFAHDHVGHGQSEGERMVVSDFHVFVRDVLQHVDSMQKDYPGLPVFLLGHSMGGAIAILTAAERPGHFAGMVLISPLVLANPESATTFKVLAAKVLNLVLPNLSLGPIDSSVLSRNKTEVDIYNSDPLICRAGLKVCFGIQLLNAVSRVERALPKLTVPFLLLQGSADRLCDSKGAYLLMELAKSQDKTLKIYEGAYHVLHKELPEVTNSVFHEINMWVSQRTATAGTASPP
Experiment: MAGL inhibition, 4-NPA assay (hydrolysis of 4-nitrophenylacetate, absorbance at 405 nm)
Assay type: biochemical
Conditions: 4-NPA assay (footnote [a]: values not marked [b])
Experimental: Compounds were profiled for MAGL inhibitory activity by measuring the enzymatic activity of MAGL by following the hydrolysis of 4-nitrophenylacetate resulting in 4-nitrophenol, which absorbs at 405-412 nm (G. G. Muccioli, G. Labar, D. M. Lambert, Chem. Bio. Chem. 2008, 9, 2704-2710). This assay is hereinafter abbreviated “4-NPA assay”.
The assay was carried out in 384 well assay plates (black with clear bottom, non-binding surface treated, Corning Ref. 3655) in a total volume of 40 μL. Compound dilutions were made in 100% DMSO (VWR Chemicals 23500.297) in a polypropylene plate in 3-fold dilution steps to give a final concentration range in the assay from 25 μM to 1.7 nM. 1 μL compound dilutions (100% DMSO) were added to 19 μL MAGL (recombinant wild-type) in assay buffer (50 mM TRIS (GIBCO, 15567-027), 1 mM EDTA (Fluka, 03690-100 mL)). The plate was shaked for 1 min at 2000 rpm (Variomag Teleshake) and then incubated for 15 min at RT. To start the reaction, 20 μL 4-Nitrophenlyacetate (Sigma N-8130) in assay buffer with 6% EtOH was added. The final concentrations in the assay were 1 nM MAGL and 300 μM 4-Nitrophenylacetate. After shaking (1 min, 2000 rpm) and 5 min incubation at RT, the absorbance at 405 nm was measured for a first time (Molecular Devices, SpectraMax Paradigm). A second measurement was then done after incubation for 80 min at RT. From the two measurements, the slope was calculated by subtracting the first from the second measurement.

Structure (SMILES) | IC50
Cn1cc(C2CCN(C(=O)N3CC[C@@H]4OCC(=O)N[C@@H]4C3)CC2)c2cc(Cl)ccc21 (racemic) [Example 3, rac-(4aR,8aS)-6-(4-(5-Chloro-1-methyl-1H-indol-3-yl)piperidine-1-carbonyl)hexahydro-2H-pyrido[4,3-b][1,4]oxazin-3(4H)-one] | 3 nM
O=C1CO[C@H]2CCN(C(=O)N3CCC(c4c[nH]c5cc(F)ccc45)CC3)C[C@H]2N1 (racemic) [Example 7, rac-(4aR,8aS)-6-[4-(6-Fluoro-1H-indol-3-yl)piperidine-1-carbonyl]-4,4a,5,7,8,8a-hexahydropyrido[4,3-b][1,4]oxazin-3-one] | 43 nM
CC(c1ccccc1)N1CCN(C(=O)N2CC[C@@H]3OCC(=O)N[C@@H]3C2)CC1 (mixture of isomers) [Example 15, rac-(4aR,8aS)-6-(4-(1-Phenylethyl)piperazine-1-carbonyl)hexahydro-2H-pyrido[4,3-b][1,4]oxazin-3(4H)-one] | 3000 nM
O=C1CO[C@H]2CCN(C(=O)N3CCC(c4c[nH]c5cc(F)ccc45)CC3)C[C@H]2N1 (relative stereo) [Example 5, (+)-cis-6-[4-(6-Fluoro-1H-indol-3-yl)piperidine-1-carbonyl]-4,4a,5,7,8,8a-hexahydropyrido[4,3-b][1,4]oxazin-3-one] | 14 nM
O=C1CO[C@H]2CCN(C(=O)N3CCC(c4cn(C(CO)CCl)c5ccc(Cl)cc45)CC3)C[C@H]2N1 (mixture of isomers) [Example 20, rac-(4aR,8aS)-6-(4-(5-Chloro-1-(1-chloro-3-hydroxypropan-2-yl)-1H-indol-3-yl)piperidine-1-carbonyl)hexahydro-2H-pyrido[4,3-b][1,4]oxazin-3(4H)-one] | 2 nM
COCCC(c1ccc(F)cc1)C1CCN(C(=O)N2CC[C@@H]3OCC(=O)N[C@@H]3C2)CC1 (mixture of isomers) [Example 6, rac-(4aR,8aS)-6-(4-(1-(4-Fluorophenyl)-3-methoxypropyl)piperidine-1-carbonyl)hexahydro-2H-pyrido[4,3-b][1,4]oxazin-3(4H)-one] | 15 nM
CC(F)(F)c1ccc(C2CCN(C(=O)N3CC[C@@H]4OCC(=O)N[C@@H]4C3)CC2)nc1 (single isomer, unassigned) [Example 41, (+) or (−)-cis-6-(4-(5-(1,1-Difluoroethyl)pyridin-2-yl)piperidine-1-carbonyl)hexahydro-2H-pyrido[4,3-b][1,4]oxazin-3(4H)-one] | 485 nM
Cc1cccc(C(c2ccccc2)C2CCN(C(=O)N3CC[C@@H]4OCC(=O)N[C@@H]4C3)CC2)c1 (single isomer, unassigned) [Example 80, (4aR,8aS)-6-[4-[(S or R)-m-Tolyl(phenyl)methyl]piperidine-1-carbonyl]-4,4a,5,7,8,8a-hexahydropyrido[4,3-b][1,4]oxazin-3-one] | 0.4 nM
COC(c1ccc(F)cc1)C1CCN(C(=O)N2CC[C@@H]3OCC(=O)N[C@@H]3C2)CC1 (mixture of isomers) [Example 8, rac-(4aR,8aS)-6-(4-((4-Fluorophenyl)(methoxy)methyl)piperidine-1-carbonyl)hexahydro-2H-pyrido[4,3-b][1,4]oxazin-3(4H)-one] | 91 nM

— patent US20230117324A1, “OXAZINE MONOACYLGLYCEROL LIPASE (MAGL) INHIBITORS” (Hoffmann-La Roche Inc., priority 2018, published 2023)
